Test results as given in paper PMC9400797 (Cell, 2022).

Tests used:
[1] = molecular target: T1, cannabinoid receptor 1 (CB1) (Homo sapiens, UniProt P21554); experiment: CB1 radioligand binding assay
Target sequence in this assay (P21554 whole entry): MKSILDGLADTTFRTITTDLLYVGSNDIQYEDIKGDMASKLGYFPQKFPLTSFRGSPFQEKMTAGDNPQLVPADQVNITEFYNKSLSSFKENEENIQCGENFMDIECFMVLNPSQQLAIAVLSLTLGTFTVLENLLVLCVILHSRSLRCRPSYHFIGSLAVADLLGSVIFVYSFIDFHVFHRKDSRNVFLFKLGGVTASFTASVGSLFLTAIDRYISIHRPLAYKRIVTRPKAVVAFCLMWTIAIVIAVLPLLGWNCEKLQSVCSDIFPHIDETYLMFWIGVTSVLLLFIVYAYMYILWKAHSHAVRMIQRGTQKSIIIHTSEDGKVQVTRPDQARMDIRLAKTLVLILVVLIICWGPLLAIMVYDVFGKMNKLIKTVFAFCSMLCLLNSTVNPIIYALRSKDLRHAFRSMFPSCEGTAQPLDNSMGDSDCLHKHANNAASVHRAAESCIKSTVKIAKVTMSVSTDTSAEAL

[2] = molecular target: T1, cannabinoid receptor 1 (CB1); experiment: GTPase-Glo GTP turnover assay with purified CB1 and Gi1, […] ligand; type: biochemical
Target sequence in this assay (P21554 whole entry): as above
Target sequence in this assay (P63096 2-354 partner): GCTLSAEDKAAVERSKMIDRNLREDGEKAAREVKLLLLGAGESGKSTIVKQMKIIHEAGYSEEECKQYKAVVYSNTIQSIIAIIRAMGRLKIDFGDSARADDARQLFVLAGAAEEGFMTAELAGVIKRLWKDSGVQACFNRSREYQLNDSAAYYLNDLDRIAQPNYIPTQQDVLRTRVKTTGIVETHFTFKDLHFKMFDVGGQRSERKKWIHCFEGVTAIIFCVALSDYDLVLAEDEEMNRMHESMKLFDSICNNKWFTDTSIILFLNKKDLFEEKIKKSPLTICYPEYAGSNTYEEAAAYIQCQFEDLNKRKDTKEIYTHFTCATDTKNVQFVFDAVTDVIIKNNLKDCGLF

Row | Compound | IC50 [1] [nM] | GTPase-Glo GTP turnover assay with purified CB1 and Gi1, 20 uM ligand [2]
1 | BODIPY517/547-genistein | 375 | –
2 | C[C@H](NC(=O)C(C)(C)Oc1ccc(C(F)(F)F)cn1)[C@@H](Cc1ccc(Cl)cc1)c1cccc(C#N)c1 [taranabant] | – | GTPase-Glo assay reveals rimonabant and taranabant to decrease GTP turnover compared with Apo
